# Entries after “also recorded” stand apart in the source; their conditions may differ.
# System: STM
# Assay: qRT-PCR of cytokinin responsive gene after BA pulse, fold change vs untreated wild type
# Type: cell-based, Arabidopsis thaliana
# Description: For quantitative real-time PCR (qRT-PCR) analysis of cytokinin-inducible gene expression, seeds were germinated on MS medium with 3% (w/v) sucrose and grown for 6 days. Cytokinin treatment was carried out by incubating seedlings in the same MS+sucrose liquid medium (no agar) supplemented with 0, 0.01, 0.1, 1 or 5 μM [solubilized in 0.1% dimethylsulfoxide (DMSO) and diluted with the MS medium] for 5 min, 15 min, 30 min or 1 h. The control seedlings were incubated with DMSO (0.1%, the concentration used to dissolve cytokinins for the treatment) for the corresponding durations and used for expression analysis. Before RNA preparation, WT, OE and AS seedlings were pooled and stored in RNAlater solution (Qiagen, Valencia, Calif.). Total RNA was extracted using the Rneasy Plant Mini Kit (Qiagen). SYBRgreen RT-PCR reagents (Applied Biosystems) were used to synthesize double-stranded cDNA. The number of transcripts present in biological replicates each of WT, OE and AS seedlings, with or without BA and DMSO, was determined from three independent replicates. Fold induction of the transcripts was calculated according to the manufacturer's instructions (ABI Prism 7700 Sequence Detection System, User Bulletin #2).
compound,measurement,setting,value
c1ccc(CNc2ncnc3nc[nH]c23)cc1 [benzyladenine],STM transcripts in OE lines compared to untreated wild type,"5 μM BA, 1 h, OE lines (e.g. OE1, OE12), listed as BA",less than a two fold change; also recorded: no significant difference
same,STM fold change,"BA 0.01 μM, 5 min, AS1, ↑ up",3.23↑
same,STM fold change,"BA 0.01 μM, 5 min, AS8, ↑ up",5.2↑
same,STM fold change,"BA 0.01 μM, 5 min, AS21, ↑ up",7.1↑
same,STM fold change,"BA 0.01 μM, 5 min, OE1, ↓ down",3.41↓
same,STM fold change,"BA 0.01 μM, 5 min, OE12, ↓ down",4.97↓
same,STM fold change,"BA 0.01 μM, 5 min, OE18, ↓ down",6.23↓
same,STM fold change,"BA 0.01 μM, 5 min, Wild type, ↑ up",2.45↑
same,STM fold change,"BA 0.01 μM, 15 min, AS1, ↑ up",3.67↑
same,STM fold change,"BA 0.01 μM, 15 min, AS8, ↑ up",5.58↑
same,STM fold change,"BA 0.01 μM, 15 min, AS21, ↑ up",7.48↑
same,STM fold change,"BA 0.01 μM, 15 min, OE1, ↓ down",3.23↓
same,STM fold change,"BA 0.01 μM, 15 min, OE12, ↓ down",4.65↓
same,STM fold change,"BA 0.01 μM, 15 min, OE18, ↓ down",6.02↓
same,STM fold change,"BA 0.01 μM, 15 min, Wild type, ↑ up",2.54↑
same,STM fold change,"BA 0.01 μM, 30 min, AS1, ↑ up",3.91↑
same,STM fold change,"BA 0.01 μM, 30 min, AS8, ↑ up",5.95↑
same,STM fold change,"BA 0.01 μM, 30 min, AS21, ↑ up",7.69↑
same,STM fold change,"BA 0.01 μM, 30 min, OE1, ↓ down",3.01↓
same,STM fold change,"BA 0.01 μM, 30 min, OE12, ↓ down",4.31↓
same,STM fold change,"BA 0.01 μM, 30 min, OE18, ↓ down",5.91↓
same,STM fold change,"BA 0.01 μM, 30 min, Wild type, ↑ up",3.01↑
same,STM fold change,"BA 0.01 μM, 1 h, AS1, ↑ up",4.1↑
same,STM fold change,"BA 0.01 μM, 1 h, AS8, ↑ up",6.06↑
same,STM fold change,"BA 0.01 μM, 1 h, AS21, ↑ up",8.05↑
same,STM fold change,"BA 0.01 μM, 1 h, OE1, ↓ down",2.81↓
same,STM fold change,"BA 0.01 μM, 1 h, OE12, ↓ down",3.96↓
same,STM fold change,"BA 0.01 μM, 1 h, OE18, ↓ down",5.82↓
same,STM fold change,"BA 0.01 μM, 1 h, Wild type, ↑ up",3.2↑
same,STM fold change,"BA 0.1 μM, 5 min, AS1, ↑ up",4.24↑
same,STM fold change,"BA 0.1 μM, 5 min, AS8, ↑ up",6.22↑
same,STM fold change,"BA 0.1 μM, 5 min, AS21, ↑ up",8.21↑
same,STM fold change,"BA 0.1 μM, 5 min, OE1, ↓ down",3.2↓
same,STM fold change,"BA 0.1 μM, 5 min, OE12, ↓ down",3.81↓
same,STM fold change,"BA 0.1 μM, 5 min, OE18, ↓ down",5.79↓
same,STM fold change,"BA 0.1 μM, 5 min, Wild type, ↑ up",3.56↑
same,STM fold change,"BA 0.1 μM, 15 min, AS1, ↑ up",4.49↑
same,STM fold change,"BA 0.1 μM, 15 min, AS8, ↑ up",6.39↑
same,STM fold change,"BA 0.1 μM, 15 min, AS21, ↑ up",8.36↑
same,STM fold change,"BA 0.1 μM, 15 min, OE1, ↓ down",3.14↓
same,STM fold change,"BA 0.1 μM, 15 min, OE12, ↓ down",3.73↓
same,STM fold change,"BA 0.1 μM, 15 min, OE18, ↓ down",5.61↓
same,STM fold change,"BA 0.1 μM, 15 min, Wild type, ↑ up",3.68↑
same,STM fold change,"BA 0.1 μM, 30 min, AS1, ↑ up",4.79↑
same,STM fold change,"BA 0.1 μM, 30 min, AS8, ↑ up",6.63↑
same,STM fold change,"BA 0.1 μM, 30 min, AS21, ↑ up",8.58↑
same,STM fold change,"BA 0.1 μM, 30 min, OE1, ↓ down",2.92↓
same,STM fold change,"BA 0.1 μM, 30 min, OE12, ↓ down",3.49↓
same,STM fold change,"BA 0.1 μM, 30 min, OE18, ↓ down",5.34↓
same,STM fold change,"BA 0.1 μM, 30 min, Wild type, ↑ up",3.85↑
same,STM fold change,"BA 0.1 μM, 1 h, AS1, ↑ up",4.97↑
same,STM fold change,"BA 0.1 μM, 1 h, AS8, ↑ up",6.94↑
same,STM fold change,"BA 0.1 μM, 1 h, AS21, ↑ up",8.87↑
same,STM fold change,"BA 0.1 μM, 1 h, OE1, ↓ down",2.76↓
same,STM fold change,"BA 0.1 μM, 1 h, OE12, ↓ down",3.01↓
same,STM fold change,"BA 0.1 μM, 1 h, OE18, ↓ down",5.01↓
same,STM fold change,"BA 0.1 μM, 1 h, Wild type, ↑ up",3.96↑
same,STM fold change,"BA 1.0 μM, 5 min, AS1, ↑ up",5.53↑
same,STM fold change,"BA 1.0 μM, 5 min, AS8, ↑ up",7.8↑
same,STM fold change,"BA 1.0 μM, 5 min, AS21, ↑ up",8.89↑
same,STM fold change,"BA 1.0 μM, 5 min, OE1, ↓ down",2.86↓
same,STM fold change,"BA 1.0 μM, 5 min, OE12, ↓ down",2.89↓
same,STM fold change,"BA 1.0 μM, 5 min, OE18, ↓ down",4.26↓
same,STM fold change,"BA 1.0 μM, 5 min, Wild type, ↑ up",4.11↑
same,STM fold change,"BA 1.0 μM, 15 min, AS1, ↑ up",5.78↑
same,STM fold change,"BA 1.0 μM, 15 min, AS8, ↑ up",7.93↑
same,STM fold change,"BA 1.0 μM, 15 min, AS21, ↑ up",9.02↑
same,STM fold change,"BA 1.0 μM, 15 min, OE1, ↓ down",2.61↓
same,STM fold change,"BA 1.0 μM, 15 min, OE12, ↓ down",2.56↓
same,STM fold change,"BA 1.0 μM, 15 min, OE18, ↓ down",4.11↓
same,STM fold change,"BA 1.0 μM, 15 min, Wild type, ↑ up",4.36↑
same,STM fold change,"BA 1.0 μM, 30 min, AS1, ↑ up",5.83↑
same,STM fold change,"BA 1.0 μM, 30 min, AS8, ↑ up",7.99↑
same,STM fold change,"BA 1.0 μM, 30 min, AS21, ↑ up",9.25↑
same,STM fold change,"BA 1.0 μM, 30 min, OE1, ↓ down",2.39↓
same,STM fold change,"BA 1.0 μM, 30 min, OE12, ↓ down",2.87↓
same,STM fold change,"BA 1.0 μM, 30 min, OE18, ↓ down",4.01↓
same,STM fold change,"BA 1.0 μM, 30 min, Wild type, ↑ up",4.69↑
same,STM fold change,"BA 1.0 μM, 1 h, AS1, ↑ up",6.21↑
same,STM fold change,"BA 1.0 μM, 1 h, AS8, ↑ up",8.07↑
same,STM fold change,"BA 1.0 μM, 1 h, AS21, ↑ up",9.66↑
same,STM fold change,"BA 1.0 μM, 1 h, OE1, ↓ down",2.11↓
same,STM fold change,"BA 1.0 μM, 1 h, OE12, ↓ down",2.62↓
same,STM fold change,"BA 1.0 μM, 1 h, OE18, ↓ down",3.82↓
same,STM fold change,"BA 1.0 μM, 1 h, Wild type, ↑ up",4.97↑
same,STM fold change,"BA 5.0 μM, 5 min, AS1, ↑ up",6.01↑
same,STM fold change,"BA 5.0 μM, 5 min, AS8, ↑ up",8.46↑
same,STM fold change,"BA 5.0 μM, 5 min, AS21, ↑ up",9.33↑
same,STM fold change,"BA 5.0 μM, 5 min, OE1, ↓ down",2.29↓
same,STM fold change,"BA 5.0 μM, 5 min, OE12, ↓ down",2.49↓
same,STM fold change,"BA 5.0 μM, 5 min, OE18, ↓ down",3.35↓
same,STM fold change,"BA 5.0 μM, 5 min, Wild type, ↑ up",5.62↑
same,STM fold change,"BA 5.0 μM, 15 min, AS1, ↑ up",6.21↑
same,STM fold change,"BA 5.0 μM, 15 min, AS8, ↑ up",8.63↑
same,STM fold change,"BA 5.0 μM, 15 min, AS21, ↑ up",9.44↑
same,STM fold change,"BA 5.0 μM, 15 min, OE1, ↓ down",2.11↓
same,STM fold change,"BA 5.0 μM, 15 min, OE12, ↓ down",2.13↓
same,STM fold change,"BA 5.0 μM, 15 min, OE18, ↓ down",3.28↓
same,STM fold change,"BA 5.0 μM, 15 min, Wild type, ↑ up",5.89↑
same,STM fold change,"BA 5.0 μM, 30 min, AS1, ↑ up",6.43↑
same,STM fold change,"BA 5.0 μM, 30 min, Wild type, ↑ up",5.99↑
same,"STM transcripts, dose dependence","BA 0.01-5 μM pulse, 5 min-1 h",dose-dependent increase
